# Results as given in the METLIN SMRT retention time set (Domingo-Almenara et al. 2019).
# Assay: gradient 5% acetonitrile 3 min, to 50% in 2 min, to 85% in 15 min, held 3 min, 100 µL/min
# Details: column: Zorbax Extend-C18 2.1 x 50 mm; eluents: water / acetonitrile, 0.1% formic acid
# How it was run: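 Retention times of pure standards were taken from adduct peaks that were selected by computer and manually inspected. Over 3 months, mixtures of ~100 molecules were run by HPLC–quadrupole time-of-flight mass spectrometry in positive and negative ionization mode. The Zorbax Extend-C18 column (2.1 × 50 mm, 1.8 μm) ran at 100 μL/min in water and acetonitrile, each containing 0.1% formic acid, with 40 μL dead volume and 900 μL dwell volume.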
row,Structure (SMILES),RP-LC retention time [s]
1,CC(C)CNC(=O)CCn1c(=O)c2ccccc2n2c(=O)n(Cc3ccc(F)cc3)nc12,870
2,COc1ccccc1N1CCN(CCCNc2cc(C(=O)O)c3ccccc3n2)CC1,575
3,COc1ccc(-c2nc3n(n2)C2(CCCCC2)[C@@H]2CCCC[C@@H]2N3C(=O)c2ccco2)cc1,1380
4,O=C(O)c1cc(-c2ccc(Cl)s2)nc2ccccc12,1070
5,O=C(NCC1CCOCC1)Nc1cc(F)c(F)c(F)c1,755
6,COc1ccc(OC)c(S(=O)(=O)NCc2ccc3c(c2)CCN3C(C)=O)c1,719
7,CCCN(C)C(=O)c1ccc2nc(-c3ccc(C)cc3)cn2c1,641
8,CC(C)(C)n1nnnc1C1CC2(CCOCC2)C(=O)N1Cc1ccc(F)cc1 (stereo not given),798
9,COc1ccc(OC)c(-c2nnc(SCC(=O)Nc3nccs3)o2)c1,693
10,COc1ccc(C(=O)Nc2cnc(N3CCCC3)nc2)cc1,691
11,CSc1ccc(-c2noc(Cn3c(=O)n(CC(C)C)c(=O)c4ccccc43)n2)cc1,1210
12,CCOC(=O)c1[nH]c(C)c(C(=O)C(C)N(CC(C)C)C(=O)c2ccc(C)cc2)c1C (stereo not given),1030
13,O=C(Cn1cccc1-c1nc(-c2ccc(F)cc2)no1)N1CCc2ccccc21,1140
14,CC(C)C(=O)N1CC[C@H](CO)[C@H](NC(=O)C2CC2)C1,583
15,O=C(COc1ccc(Cl)cc1)N1CCN(CC(F)(F)F)CC1,853
16,Cc1ccc(F)c2c(=O)c3c([nH]c12)CCN(CC(=O)Nc1cccc(F)c1)C3,620
17,CCCn1c(=O)sc2cc(S(=O)(=O)N3CCC(C(=O)Nc4ccc(C)cc4C)CC3)ccc21,997
18,Cc1ccc(N2C(=O)C3N=NN(Cc4nc(-c5ccc(Cl)cc5)no4)C3C2=O)cc1 (stereo not given),1070
19,Cc1nc2ccccn2c(=O)c1CCN1CCC(C(=O)c2ccc(F)cc2)CC1,643
20,CC1CCN(CCNc2ccc(-c3nc(-c4ccc(F)cc4)no3)cn2)CC1,777
21,CCn1ccc(C(=O)Nc2cnc(-c3cccc(Cl)c3)nc2)n1,1020
22,COc1ccccc1C(=O)Nc1cnc(-c2ccc(Cl)cc2)nc1,1170
23,CCCN(CCC)C(=O)c1cc(NC(=O)CC)cnc1N1CCNCC1,588

row,Structure (SMILES),RP-LC retention time [s]
1,CCN1C(=O)Cc2ccccc2C1C(=O)NCc1ccccc1Br (stereo not given),780
2,CC(C)c1ccc(NC(=O)c2cn3c(n2)CCCC3)cc1,684
3,O=C(NCc1ccccc1Br)c1cn2c(n1)CCCC2,610
4,COc1ccc(-c2noc(N3CCC(C(=O)NC4CC4)CC3)n2)cc1OC,690
5,O=C(CC1CCN(C(=O)Nc2ccc(F)cc2F)CC1)N1CCCCC1,722
6,COC(=O)c1cccc(NC(=O)c2sc3ncccc3c2-n2cccc2)c1,1040
7,COc1ccc(NC(=O)C2CCCN(c3nccnc3Sc3ccccc3)C2)cc1Cl (stereo not given),1150
8,CCCn1c(C)cnc1C1CN(S(=O)(=O)c2ccc(C)c(Cl)c2)C1,710
9,Cc1nnc(-c2ccc(Cl)cc2)nc1N1CCC(C)CC1,897
10,O=C(c1cnccn1)N1CCCCC1c1nc(-c2ccc(F)cc2)no1 (stereo not given),918
11,O=C(NCc1ccc(F)cc1)C1CCN(S(=O)(=O)c2cc(C(=O)N3CCOCC3)cs2)CC1,739
12,O=C(NCCOc1ccc2c(c1)OCO2)c1c(F)cccc1F,760
13,COc1ccc(NC(=O)C2CCN(S(=O)(=O)c3cc(-c4noc(C)n4)cs3)CC2)cc1OC,814
14,COc1ccc(NC(=O)Cc2c(C)nn(-c3nc(-c4ccc(F)cc4)cs3)c2C)c(OC)c1,1160
15,O=C(c1ccccc1)N1CCCCC1c1nncn1CC1CC1 (stereo not given),592
16,COc1ccccc1-c1nc(-c2ccc3c(c2)ncn3CCN2CCCC2)no1,797
17,Cc1nn(-c2ccc(C(=O)NCc3cccs3)cc2)c2c1C(=O)CCC2,749
18,Cc1csc(-c2cc(S(=O)(=O)Nc3ccc(Cl)cc3)cn2CC(=O)N2CCCC2)n1,947
19,CCC(C)NC(=O)Cn1c(=O)cc(-c2nc(C3CC3)no2)c2ccccc21 (stereo not given),863
20,COc1ccc(Cl)cc1NC(=O)CN1CCCC(COCc2ccccc2)C1 (stereo not given),630
21,Cc1oc(-c2[nH]ncc2C(=O)N(C)C)cc1S(=O)(=O)NC1CCCC1,650
22,Cc1ccc(CSc2nnc(-c3ccccc3Cl)o2)cc1,1190
23,Cc1nn(-c2cc(N(C)C)ncn2)c(C)c1CCC(=O)NCc1ccco1,684

row,Structure (SMILES),RP-LC retention time [s]
1,CCC(NC(=O)c1cn(C)c2ncccc12)c1cccs1 (stereo not given),800
2,Cc1cc2n(n1)CCC(=O)N2CCCC(=O)NCCCN1CCc2ccccc2C1,580
3,COc1ccc(C(=O)CC(SCCO)c2ccc(Cl)cc2)cc1 (stereo not given),866
4,CSc1cccc(N2C(=O)C3N=NN(Cc4nc(-c5ccc(Cl)cc5)no4)C3C2=O)c1 (stereo not given),1070
5,COc1ccc(C2CN(S(=O)(=O)c3cccc(C#N)c3)CCN2C)cc1 (stereo not given),550
6,CCCCCc1cc(O)c2c(c1)OC(C)(C)[C@@H]1CCC(C(=O)O)=CC21 (stereo not given in full),1130
7,O=C(NCCCn1ccnc1)C1CC(=O)N(CCc2c[nH]c3ccc(Cl)cc23)C1 (stereo not given),603
8,Cc1ccc(C(=O)N2CCC(n3c(C)cnc3C)C2)s1 (stereo not given),585
9,Cc1ccc(N2CC(c3nc(-c4ccc5c(c4)ncn5C)no3)CC2=O)cc1C (stereo not given),702
10,Cn1nccc1-c1cccc(-c2noc(-c3cncc(Br)c3)n2)c1,1100
11,COc1cccc(-c2[nH]ncc2CN2CCC3(CC2)CC(O)CCO3)c1 (stereo not given),576
12,COc1ccc(OC)c(C(C)NC(=O)C2CCCN(c3nccnc3Sc3ccc(C)cc3)C2)c1 (stereo not given),1150
13,O=C(CSc1cc(-n2ccc(C(=O)NC3CC3)n2)ncn1)Nc1ccc(Cl)cc1F,867
14,Cc1nc(COc2ccccc2)sc1C(=O)N1CCC(C(N)=O)CC1,925
15,O=C(NCc1cccs1)C1CCN(C(=O)c2cc(-c3ccncc3)n[nH]2)CC1,572
16,Cc1ccc(Nc2c(-c3ccccc3)nc3cccc(C)n23)cc1,757
17,O=C(Nc1ccc(C(F)(F)F)cc1)N1CC(n2cnnc2-c2ccccc2)C1,784
18,Cc1ccc(N2C(=O)C3N=NN(Cc4nc(-c5ccccc5)no4)C3C2=O)cc1 (stereo not given),975
19,Cc1ccc(C)c(NC(=O)Cn2cccc(-c3nc(-c4ccc(Br)cc4)no3)c2=O)c1,1030
20,CSc1ccc(NC(=O)c2cn3c(n2)CCCC3)cc1,624
21,CC(=O)N1CCc2cc(N3CC(C(=O)Nc4ccc(F)c(C)c4)CC3=O)ccc21 (stereo not given),740
22,COCCn1cc2c3c(cccc31)CN(C(=O)c1ccc(Br)o1)CC2,976
23,CN1CCN(c2ccc(CNC(=O)CN3CCN(Cc4ccc(F)cc4)C3=O)cc2)CC1,599

row,Structure (SMILES),RP-LC retention time [s]
1,CN(CCNC(=O)C1CCCN(S(=O)(=O)c2ccc3c(ccn3C)c2)C1)Cc1ccccc1 (stereo not given),704
2,COc1cc2c(cc1OC)C1C(C(=O)NCCN3CCOCC3)c3ccccc3C(=O)N1CC2 (stereo not given),590
3,Cc1cccc(C)c1NC(=O)CN1CCCC1,633
4,Cc1ccc(NC(=O)CN2CCc3[nH]c4c(C)c(C)ccc4c(=O)c3C2)cc1,626
5,CS(=O)(=O)N[C@H]1C[C@@H]2C[C@H]1CN2C(=O)c1cccc(Cl)c1,672
6,O=C(CCc1c(-c2ccccc2)nc2ccccn12)Nc1ccccc1C(F)(F)F,691
7,Fc1ccccc1-c1nc(-c2ccc3c(c2)ncn3CCN2CCOCC2)no1,627
8,COc1ccc(CC(=O)Nc2ccc(-c3cn4ccsc4n3)cc2)cc1OC,604
9,Cc1noc(-c2ccc(-n3ncc(C(=O)NCCC(C)C)c3C)nc2)n1,943
10,Cc1cccc(CNS(=O)(=O)c2cn(CC(C)C)c3ncccc23)c1,993
11,C[C@H]1CN(C(=O)C2(c3ccccc3)CC2)C[C@@H]1c1nc(-c2cccnc2)no1,827
12,COc1cccc(-c2nc(C3CC(=O)N(c4ccc(F)c(Cl)c4)C3)no2)c1 (stereo not given),1100
13,Cc1ccc(C2CCCN2C(=O)c2cc(-c3ccco3)on2)cc1 (stereo not given),1020
14,O=C1CC(c2nc(-c3cccc(Cl)c3)no2)CN1c1ccc(F)cc1 (stereo not given),1030
15,O=C(Cn1nc2c3sc(N4CCCCC4)nc3ncn2c1=O)Nc1ccc(F)c(F)c1,851
16,Cc1cc(C)cc(OCc2nc(CCN(C)C(=O)Nc3ccccc3)no2)c1,970
17,Cc1ccc2nc(C(=O)NCc3ccccc3Cl)cn2c1,718
18,CCNC(=O)c1nc(C(=O)NC(C)C)cs1,656
19,O=S(=O)(c1cccc2cccnc12)N1CC[C@@H]2COCCN(Cc3cccnc3)[C@@H]2C1,600
20,CCN1C(=O)COc2ccc(-c3nc(NC(=O)C(C)C)sc3C)cc21,909
21,O=C(NCc1ccccc1Cl)C(=O)Nc1cccc(N2CCCCC2=O)c1,751
